In brackets after ≈: the same amount, converted by molar mass. Structures can show the parent of a compound that is named as a salt. Where two headings read alike, the source gives them in different places.
What was measured:
Type in all cases: cell-based
[1] = tested on: Bacillus subtilis ATCC 6633; test: Antibacterial activity (MIC), Bacillus subtilis ATCC 6633; conditions: Bacillus subtilis, ATCC6633, Bacillus subtilis ATCC 6633, Gram +; read-out: Minimum inhibitory concentration (MIC)
Procedure: (§1) The compounds of the present invention (A, C, D, E, F, G, H, I, J, L, O and P) and the known compound (X) as reference were dissolved in 0.1 N aqueous sodium hydroxide to prepare a solution of 5000 μg/ml in concentration. The compounds of the present invention (B, K, M and N) and the known compound (Y) were dissolved in sterilized distilled water to prepare a solution of 5000 μg/ml in concentration. Each solution was diluted with sterilized distilled water to prepare a standard solution with a concentration of each test compound: 1000 μg/ml. The test was carried out by a method as appointed by Japan Society of Chemotherapy [cf. Chemotherapy, 29, 76-79 (1981)(TOKYO)].

Escherichia coli KC-14 = test: Antibacterial activity (MIC), E. coli KC-14
Procedure: as §1

[2] = tested on: Staphylococcus aureus IID 803; test: Antibacterial activity (MIC), S. aureus IID 803
Procedure: as §1

[3] = tested on: Micrococcus luteus ATCC 9341; test: Antibacterial activity (MIC), Micrococcus luteus ATCC 9341; conditions: ATCC9341; Micrococcus luteus ATCC 9341, Gram +; read-out: Minimum inhibitory concentration (MIC)
Procedure: as §1

[4] = tested on: Pseudomonas aeruginosa E-2; test: Antibacterial activity (MIC), P. aeruginosa E-2; conditions: E2; Pseudomonas aeruginosa E-2, Gram -; read-out: Minimum inhibitory concentration (MIC)
Procedure: as §1

[5] = tested on: Citrobacter freundii NIHJ 10018-68; test: Antibacterial activity (MIC), Citrobacter freundii NIHJ 10018-68; conditions: Citrobacter freundii, NIHJ10018, Citrobacter freundii NIHJ 10018-68, Gram -; read-out: Minimum inhibitory concentration (MIC)
Procedure: as §1

Proteus vulgaris OX-19 = test: Antibacterial activity (MIC), Proteus vulgaris OX-19
Procedure: as §1

[6] = tested on: Proteus mirabilis IFO 3849; test: Antibacterial activity (MIC), Proteus mirabilis IFO 3849; conditions: IFO3849; Proteus mirabilis IFO 3849, Gram -; read-out: Minimum inhibitory concentration (MIC)
Procedure: as §1

[7] = tested on: Staphylococcus aureus FDA 209P JC-1; test: Antibacterial activity (MIC), S. aureus FDA 209P JC-1; conditions: FDA209P, read-out: Minimum inhibitory concentration (MIC)
Procedure: as §1

[8] = tested on: Staphylococcus epidermidis IAM-1296; test: Antibacterial activity (MIC), S. epidermidis IAM-1296; conditions: Staphylococcus epidermidis
Procedure: as §1

Shigella sonnei EW-33 = test: Antibacterial activity (MIC), Shigella sonnei EW-33; conditions: Shigella sonnei, EW33, Shigella sonnei EW-33, Gram -; read-out: Minimum inhibitory concentration (MIC)
Procedure: as §1

[9] = tested on: Streptococcus faecalis IID 682; test: Antibacterial activity (MIC), Streptococcus faecalis IID 682; conditions: for MIC: Enterococcus faecalis
Procedure: as §1

[10] = tested on: Pseudomonas aeruginosa NCTC 10490; test: Antibacterial activity (MIC), P. aeruginosa NCTC 10490; conditions: Pseudomonas aeruginosa, NCTC10490, Pseudomonas aeruginosa NCTC 10490, Gram -; read-out: Minimum inhibitory concentration (MIC)
Procedure: as §1

Enterobacter cloacae 963 = test: Antibacterial activity (MIC), Enterobacter cloacae 963
Procedure: as §1

[11] = tested on: Morganella morganii IFO 3848; test: Antibacterial activity (MIC), Morganella morganii IFO 3848; conditions: for MIC: Morganella morganii, IFO3848, Morganella morganii IFO 3848, Gram -, read-out: Minimum inhibitory concentration (MIC)
Procedure: as §1

[12] = tested on: Enterobacter aerogenes ATCC 13048; test: Antibacterial activity (MIC), Enterobacter aerogenes ATCC 13048; conditions: Klebsiella aerogenes
Procedure: as §1

[13] = tested on: Pseudomonas aeruginosa IFO 3445; test: Antibacterial activity (MIC), P. aeruginosa IFO 3445; conditions: Pseudomonas aeruginosa, IFO3445, Pseudomonas aeruginosa IFO 3445, Gram -; read-out: Minimum inhibitory concentration (MIC)
Procedure: as §1

[14] = tested on: Salmonella typhimurium IID 971; test: Antibacterial activity (MIC), Salmonella typhimurium IID 971; conditions: Salmonella enterica, read-out: Minimum inhibitory concentration (MIC)
Procedure: as §1

[15] = tested on: Serratia marcescens IAM 1184; test: Antibacterial activity (MIC), Serratia marcescens IAM 1184; conditions: Serratia marcescens, IAM1184, Serratia marcescens IAM 1184, Gram -; read-out: Minimum inhibitory concentration (MIC)
Procedure: as §1

[16] = tested on: Acinetobacter calcoaceticus AC 54; test: Antibacterial activity (MIC), Acinetobacter calcoaceticus AC 54; conditions: AC54; Acinetobacter calcoaceticus AC 54, Gram -; read-out: Minimum inhibitory concentration (MIC)
Procedure: as §1

[17] = tested on: Escherichia coli NIHJ JC-2; test: Antibacterial activity (MIC), E. coli NIHJ JC-2
Procedure: as §1

[18] = tested on: Klebsiella pneumoniae PCI-602; test: Antibacterial activity (MIC), Klebsiella pneumoniae PCI-602; conditions: PCI602; Klebsiella pneumoniae PCI-602, Gram -; read-out: Minimum inhibitory concentration (MIC)
Procedure: as §1

[19] = Escherichia coli, KC14, read-out: Minimum inhibitory concentration (MIC)
[20] = Staphylococcus aureus, IID803, read-out: Minimum inhibitory concentration (MIC)
[21] = OX19, Proteus vulgaris OX-19, Gram -, read-out: Minimum inhibitory concentration (MIC)
[22] = IID682, Streptococcus faecalis IID 682, Gram +, read-out: Minimum inhibitory concentration (MIC)
[23] = IAM1296, Staphylococcus epidermidis IAM-1296, Gram +, read-out: Minimum inhibitory concentration (MIC)
[24] = Enterobacter cloacae, 963, Enterobacter cloacae 963, Gram -, read-out: Minimum inhibitory concentration (MIC)
[25] = ATCC13048, Enterobacter aerogenes ATCC 13048, Gram -, read-out: Minimum inhibitory concentration (MIC)
[26] = Salmonella typhimurium IID 971, Gram -
[27] = NIHJJC2, Escherichia coli NIHJ JC-2, Gram -, read-out: Minimum inhibitory concentration (MIC)
[28] = KC14, Escherichia coli KC-14, Gram -, read-out: Minimum inhibitory concentration (MIC)

SMILES: CC1CN(c2c(F)cc3c(=O)c(C(=O)O)c4scc5n4c3c2N(C)C5)CCN1 (centres unmarked) [Compound (D), 9,1-(Methylimino)methano-7-fluoro-8-(3-methyl-1-piperazinyl)-5-oxo-5H-thiazolo[3,2-a]quinoline-4-carboxylic acid]
- MIC [1]: 6 ng/mL (≈ 0.0149 µM)
- MIC (Escherichia coli KC-14; [19]): 0.05 µg/mL (≈ 0.124 µM)
- MIC [2, 20]: 0.05 µg/mL (≈ 0.124 µM)
- MIC [3]: 0.39 µg/mL (≈ 0.969 µM)
- MIC [4]: 0.78 µg/mL (≈ 1.94 µM)
- MIC [5]: 0.39 µg/mL (≈ 0.969 µM)
- MIC (Proteus vulgaris OX-19; [21]): 0.006 µg/mL (≈ 0.0149 µM)
- MIC [6]: 0.2 µg/mL (≈ 0.497 µM)
- MIC ([7]; Staphylococcus aureus): 0.05 µg/mL (≈ 0.124 µM)
- MIC ([8]; IAM1296, read-out: Minimum inhibitory concentration (MIC)): 0.05 µg/mL (≈ 0.124 µM)
- MIC (Shigella sonnei EW-33): 0.05 µg/mL (≈ 0.124 µM)
- MIC [9, 22]: 0.1 µg/mL (≈ 0.248 µM)
- MIC [10]: 0.39 µg/mL (≈ 0.969 µM)
- MIC (Enterobacter cloacae 963; Enterobacter cloacae, 963, read-out: Minimum inhibitory concentration (MIC)): 0.05 µg/mL (≈ 0.124 µM)
- MIC [11]: 0.1 µg/mL (≈ 0.248 µM)
- MIC ([12]; ATCC13048, read-out: Minimum inhibitory concentration (MIC)): 0.05 µg/mL (≈ 0.124 µM)
- MIC [13]: 0.78 µg/mL (≈ 1.94 µM)
- MIC [14]: 0.05 µg/mL (≈ 0.124 µM)
- MIC [15]: 0.39 µg/mL (≈ 0.969 µM)
- MIC [16]: 0.025 µg/mL (≈ 0.0621 µM)
- MIC ([17]; Escherichia coli, NIHJJC2, read-out: Minimum inhibitory concentration (MIC)): 0.05 µg/mL (≈ 0.124 µM)
- MIC [18]: 6 ng/mL (≈ 0.0149 µM)

SMILES: CC1CN(c2c(F)cc3c(=O)c(C(=O)O)c4scc5n4c3c2N(C)C5)CC(C)N1 (centres unmarked) [Compound (E), 9,1-(Methylimino)methano-7-fluoro-8-(3,5-dimethyl-1-piperazinyl)-5-oxo-5H-thiazolo[3,2-a]-quinoline-4-carboxylic acid]
- MIC [1]: 25 ng/mL (≈ 0.06 µM)
- MIC (Escherichia coli KC-14; [19]): 0.05 µg/mL (≈ 0.12 µM)
- MIC [2, 20]: 0.05 µg/mL (≈ 0.12 µM)
- MIC [3]: 0.39 µg/mL (≈ 0.936 µM)
- MIC [4]: 1.56 µg/mL (≈ 3.75 µM)
- MIC [5]: 1.56 µg/mL (≈ 3.75 µM)
- MIC (Proteus vulgaris OX-19; Proteus vulgaris, OX19, read-out: Minimum inhibitory concentration (MIC)): 0.05 µg/mL (≈ 0.12 µM)
- MIC [6]: 0.78 µg/mL (≈ 1.87 µM)
- MIC ([7]; Staphylococcus aureus): 0.05 µg/mL (≈ 0.12 µM)
- MIC [8, 23]: 0.1 µg/mL (≈ 0.24 µM)
- MIC (Shigella sonnei EW-33): 0.05 µg/mL (≈ 0.12 µM)
- MIC [9, 22]: 0.2 µg/mL (≈ 0.48 µM)
- MIC [10]: 0.39 µg/mL (≈ 0.936 µM)
- MIC (Enterobacter cloacae 963; [24]): 0.2 µg/mL (≈ 0.48 µM)
- MIC [11]: 0.39 µg/mL (≈ 0.936 µM)
- MIC [12, 25]: 0.2 µg/mL (≈ 0.48 µM)
- MIC [13]: 1.56 µg/mL (≈ 3.75 µM)
- MIC [14, 26]: 0.1 µg/mL (≈ 0.24 µM)
- MIC [15]: 0.78 µg/mL (≈ 1.87 µM)
- MIC [16]: 0.025 µg/mL (≈ 0.06 µM)
- MIC [17, 27]: 0.1 µg/mL (≈ 0.24 µM)
- MIC [18]: 6 ng/mL (≈ 0.0144 µM)

SMILES: CN1Cc2csc3c(C(=O)O)c(=O)c4cc(F)c(N5CCCC5)c1c4n23 [Compound (F), 9,1-(Methylimino)methano-7-fluoro-8-(1-pyrrolidinyl)-5-oxo-5H-thiazolo[3,2-a]quinoline-4-carboxylic acid]
- MIC [1]: 6 ng/mL (≈ 0.0161 µM)
- MIC (Escherichia coli KC-14; [28]): 0.2 µg/mL (≈ 0.536 µM)
- MIC ([2]; IID803, Staphylococcus aureus IID 803, Gram +, read-out: Minimum inhibitory concentration (MIC)): 0.0125 µg/mL (≈ 0.0335 µM)
- MIC [3]: 0.39 µg/mL (≈ 1.04 µM)
- MIC [4]: 0.39 µg/mL (≈ 1.04 µM)
- MIC [5]: 1.56 µg/mL (≈ 4.18 µM)
- MIC (Proteus vulgaris OX-19; [21]): 0.025 µg/mL (≈ 0.067 µM)
- MIC [6]: 0.39 µg/mL (≈ 1.04 µM)
- MIC ([7]; Staphylococcus aureus FDA 209P JC-1, Gram +): 0.0125 µg/mL (≈ 0.0335 µM)
- MIC [8, 23]: 0.025 µg/mL (≈ 0.067 µM)
- MIC (Shigella sonnei EW-33): 0.1 µg/mL (≈ 0.268 µM)
- MIC ([9]; IID682, read-out: Minimum inhibitory concentration (MIC)): 0.1 µg/mL (≈ 0.268 µM)
- MIC [10]: 0.39 µg/mL (≈ 1.04 µM)
- MIC (Enterobacter cloacae 963; [24]): 0.39 µg/mL (≈ 1.04 µM)
- MIC [11]: 0.39 µg/mL (≈ 1.04 µM)
- MIC [12, 25]: 0.39 µg/mL (≈ 1.04 µM)
- MIC [13]: 0.78 µg/mL (≈ 2.09 µM)
- MIC [14, 26]: 0.2 µg/mL (≈ 0.536 µM)
- MIC [15]: 0.78 µg/mL (≈ 2.09 µM)
- MIC [16]: 0.006 µg/mL (≈ 0.0161 µM)
- MIC [17, 27]: 0.2 µg/mL (≈ 0.536 µM)
- MIC [18]: 6 ng/mL (≈ 0.0161 µM)

SMILES: CCN1CCN(c2c(F)cc3c(=O)c(C(=O)O)c4scc5n4c3c2N(C)C5)CC1 [Compound (K), 9,1-(Methylimino)methano-7-fluoro-8-(4-ethyl-1-piperazinyl)-5-oxo-5H-thiazolo[3,2-a]quinoline-4-carboxylic acid hydrochloride]
- MIC (Escherichia coli KC-14; [28]): 0.05 µg/mL
- Minimum inhibitory concentration (MIC) ([9]; Streptococcus faecalis IID 682, Gram +, hydrochloride): 0.20 µg/mL
- Minimum inhibitory concentration (MIC) ([11]; Morganella morganii IFO 3848, Gram -, hydrochloride): 0.20 µg/mL
- MIC [14, 26]: 0.05 µg/mL
- MIC [16]: 0.05 µg/mL

Reference: US4971967A, “Quinolinecarboxylic acid derivatives, antibacterial compositions and use” (Kanebo Ltd, priority 1989, dated 1990)
